# What was measured:
# Type in all cases: cell-based, human
# [1] = system: CCRF-CEM (T-acute lymphoblastic leukemia); experiment: MTT growth inhibition, 72 h; conditions: mean ± SE
# Procedure: (§1) [Cu(thp)4][PF6] (CP) was evaluated for its growth inhibition activity on a panel of twelve different human leukemia cell lines (five B-acute lymphoblastic leukemia, three T-acute lymphoblastic leukemia, three acute myeloid leukemia and one chronic myeloid leukemia). Cells were treated for 72 h with CP and cell viability was evaluated by MTT test. […] This abnormal high expression of proteasomal proteins and mRNA seem to be correlated to the hyperproliferation of these cancer cells and to the sensitivity towards proteasome inhibitors.
# (§2) The human leukemia cell lines RS 4;11, SEM, REH, RCH-ACV, MHH-CALL2, Jurkat, CCRF-CEM, HSB2, HL-60, K562, THP-1, MV4;11 were purchased from the American Type Culture Collection. Cells were cultured in RPMI 1640 (Life Technologies, Italy) supplemented with 10% fetal bovine serum (FBS), glutamine (2 mM; Life Technologies, Italy), penicillin (100 U/ml; Life Technologies, Italy) and streptomycin (100 μg/ml; Life Technologies, Italy), and maintained at 37°C in a humidified atmosphere with 5% CO2. The cytotoxic activity of CP was determined using a standard 3-[4,5-dimethylthiazol-2-yl]-2,5-diphenyltetrazodium bromide (MTT) based colorimetric assay (Sigma-Aldrich, Italy). Briefly, cells were seeded at a density of 2×10^4 cells/well in 96-well microtiter plates. After 24 h, cells were exposed to the test compound. After different times, cell survival was determined by the addition of an MTT solution as previously described.
# [2] = system: HL60 (promyelocytic leulemia); experiment: MTT growth inhibition, 72 h; conditions: HL60, 72 h, mean ± SE
# Procedure: as §1, §2
# [3] = system: HSB-2 (T-acute lymphoblastic leukemia); experiment: MTT growth inhibition, 72 h; conditions: HSB-2, 72 h, mean ± SE
# Procedure: as §1, §2
# [4] = system: Jurkat (T-acute lymphoblastic leukemia); experiment: MTT growth inhibition, 72 h; conditions: mean ± SE
# Procedure: as §1, §2
# [5] = system: K562 (chronic myeloid leukemia); experiment: MTT growth inhibition, 72 h; conditions: K562, 72 h, mean ± SE
# Procedure: as §1, §2
# [6] = system: MHH-CALL2 (B-acute lymphoblastic leukemia); experiment: MTT growth inhibition, 72 h; conditions: MHH-CALL2, 72 h, mean ± SE
# Procedure: as §1, §2
# [7] = system: MV4;11 (acute myeloid leukemia); experiment: MTT growth inhibition, 72 h; conditions: MV4;11, 72 h, mean ± SE
# Procedure: as §1, §2
# [8] = system: RCH-ACV (B-acute lymphoblastic leukemia); experiment: MTT growth inhibition, 72 h; conditions: mean ± SE
# Procedure: as §1, §2
# [9] = system: REH (B-acute lymphoblastic leukemia); experiment: MTT growth inhibition, 72 h; conditions: mean ± SE
# Procedure: as §1, §2
# [10] = system: RS4;11 (B-acute lymphoblastic leukemia); experiment: MTT growth inhibition, 72 h; conditions: RS4;11, 72 h, mean ± SE
# Procedure: as §1, §2
# [11] = system: SEM (B-acute lymphoblastic leukemia); experiment: MTT growth inhibition, 72 h; conditions: mean ± SE
# Procedure: as §1, §2
# [12] = system: THP-1 (acute myeloid leukemia); experiment: MTT growth inhibition, 72 h; conditions: THP-1, 72 h, mean ± SE
# Procedure: as §1, §2
# [13] = system: RS4;11, SEM, Jurkat and THP-1 cell lines and PBMC from healthy donors; experiment: Cellular uptake, intracellular copper by GF-AAS; conditions: 6.25, 12.5 and 25 μM CP, 24 h, leukemic cells vs healthy PBMC
# Procedure: In an attempt to correlate the cytotoxic activity of CP with its cellular uptake, the intracellular copper content was evaluated in RS4;11, SEM, Jurkat and THP-1 cell lines and PBMC from healthy donors treated for 24 h with increasing concentrations of CP. The intracellular copper amount (Figure 1, panel A) was quantified by GF-AAS analysis (Graphite Furnace Atomic Absorption Spectrometry).
# FIGURE 1 CP uptake and effects on cell cycle and apoptosis induction A) RS4;11, SEM, THP1, Jurkat cell lines and healthy PBMC were incubated with 6.25, 12.5 and 25 μM of CP for 24 h. The intracellular accumulation of CP was detected by GF-AAS analysis. B) SEM and RS4;11 cells were treated with the indicated concentrations of CP for 24 h, cell cycle distribution and Sub-G1 contents were analyzed by flow cytometry after cell staining with PI. The percentages of each phase of the cell cycle (G1, S, G2/M) were calculated on living cells whereas the percentages of cells with hypodiploid DNA content peak (subG1) was referred to cell population characterized by the appearance of subG1 peak. C) SEM and RS4;11 cells were incubated with 2.5 μM CP for the indicated times and analyzed by flow cytometry after double staining with Annexin-V-FITC and PI. Data are represented as mean ± S.E.M. of three independent experiments. […]
smiles,measurement,setting,value
"F[P-](F)(F)(F)(F)F.OCP(CO)CO.OCP(CO)CO.OCP(CO)CO.OCP(CO)CO.[Cu+] [CP, [Cu(thp)4][PF6]]",GI50,[1],3.9 ± 0.22 µM
same,GI50,[2],12.1 ± 2.8 µM
same,GI50,[3],15.1 ± 0.26 µM
same,GI50,[4],16.7 ± 2.6 µM
same,GI50,[5],23.2 ± 1 µM
same,GI50,[6],1.9 ± 0.1 µM
same,GI50,[7],1.2 ± 0.2 µM
same,GI50,[8],0.9 ± 0.2 µM
same,GI50,[9],4.2 ± 0.2 µM
same,GI50,[10],0.3 ± 0.01 µM
same,GI50,[11],1.6 ± 0.06 µM
same,GI50,[12],17.2 ± 1 µM
same,intracellular copper content,[13],marked increase of copper intracellular content in comparison with healthy PBMC
